Measured values from US20020111386A1, “Apparatus for pulmonary delivery of drugs with simultaneous liquid lavage and ventilation” (priority 1989, published 2002).

System: anesthetized and tracheotomized young cats
Test: Pulmonary administration of drugs dispersed in PFC liquid during liquid ventilation: cardiovascular and airway smooth muscle effects
Format: in vivo, cat
Details: for effect on airway on addition to perfluorocarbon ventilation liquid: added to a perfluorocarbon ventilation liquid
Description: When testing the dose-dependency effect of the pulmonary administration of acetylcholine [ACh], the effect after the administration of the drug (expressed as a percentage of the baseline), as a function of the concentration of the drug, was monitored.
Here, the ACh was dispersed in the PFC liquid medium. The initial amount of ACh dispersed in the PFC liquid was 0.01 mg per each kilogram of the laboratory animal's body weight.
(§1) Each of the animals tested had at least one of the following parameters recorded before, during and after the pulmonary administration of the drug: (a) heart rate (bpm), (b) mean arterial pressure (mm Hg), and (c) tracheal pressure (cm water). The averages for each of these recorded parameters were then calculated, depending upon the number of cats tested. These calculated values are plotted on the graph in FIG. 35.
In addition to the above, the following parameters were also monitored and/or controlled: tidal volume, inspiratory and expiratory liquid flow rate, arterial chemistry, pulmonary compliance and resistance, and/or breathing frequency.
For each incremental increase, the animals tested had at least one of the aforementioned parameters recorded before and after the pulmonary administration of the drug.
Also for each incremental increase, the averages for each recorded parameter were calculated and plotted on the graph in FIG. 35.
Another way in which the effect of the pulmonary administration of ACh was tested was by monitoring carotid pressure, as a function of time, before, during and after the pulmonary administration of the drug. Here, 0.6 mg/kg of Ach was dispersed in the PFC liquid medium.
Yet another way in which the effect of the pulmonary administration of ACh was tested was by monitoring tracheal pressure, as a function of time, before, during and after the pulmonary administration of the drug.
Here, 0.6 mg/kg of ACh was dispersed in the PFC liquid medium.
When testing the dose-dependency effect of the pulmonary administration of epinephrine [Epi], the effect after the administration of the drug (expressed as a percentage of the baseline), as a function of the concentration of the drug, was monitored.
Here, the Epi was dispersed in the PFC liquid medium. The initial amount of Epi dispersed in the PFC liquid was 0.01 mg Per each kilogram of the laboratory animal's body weight.
as §1, with “before” for “before, during”, “36.” for “35.”
Also for each incremental increase, the averages for each recorded parameter were calculated and plotted on the graph in FIG. 36.
Another way in which the effect of the pulmonary administration of Epi was tested was by monitoring the change in mean arterial pressure and heart rate resulting from drug delivery.
Here, 0.50 mg/kg of Epi was dispersed in the PFC liquid medium.
When testing the dose-dependency effect of the pulmonary administration of priscoline [P], the effect after the administration of the drug (expressed as a percentage of the baseline), as a function of the concentration of the drug, was monitored.
Here, the P was dispersed in the PFC liquid medium. The initial amount of P dispersed in the PFC liquid was 4 mg.
Each of the animals tested weighed approximately 3 kg. Each of these test animals had at least one of the following parameters recorded before and after the pulmonary administration of the drug: (a) heart rate (bpm), (b) mean arterial pressure (mm Hg), and (c) right ventricular pressure.
The averages for each of the aforementioned recorded parameters were then calculated, depending upon the number of cats tested. These calculated values are plotted on the graph in FIG. 37. […]

[1] = P 4 mg to 12 mg in inspired PFC liquid, animals approx. 3 kg, FIG. 37
[2] = Epi 0.01 to 1.0 mg/kg in inspired PFC liquid, FIG. 36

## CC(C)NCC(O)c1ccc(O)c(O)c1 (centres unmarked) [isoproterenol]
  effect on airway on addition to perfluorocarbon ventilation liquid: Airway dilation

## CC(=O)OCC[N+](C)(C)C [ACh, acetylcholine]
0.6 mg/kg ACh in PFC liquid
  increase in tracheal pressure after drug administration: about 6 mm Hg
  total time necessary to decrease the carotid pressure by about 40 mm Hg: about 10 seconds
  total time necessary to increase the tracheal pressure (cm water) by about 5 mm Hg: about 20 seconds
0.6 mg/kg ACh in PFC liquid, via endotracheal tube
  decrease in carotid pressure after drug administration: about 40 mm Hg

## c1ccc(CC2=NCCN2)cc1 [P, priscoline]
12 mg P in PFC liquid
  decrease in carotid pressure after drug administration: about 30 mm Hg
  onset of decrease in carotid pressure after administration: almost instantaneously
  total time necessary to decrease the carotid pressure by about 30 mm Hg: about 10 seconds
[1]
  heart rate, dose-dependent response (percentage of baseline): remained fairly constant
  mean arterial pressure, dose-dependent response (percentage of baseline): decreases
  right ventricular pressure, dose-dependent response (percentage of baseline): decreases

## CNC[C@H](O)c1ccc(O)c(O)c1 [Epi, epinephrine]
0.50 mg/kg Epi in PFC liquid
  decrease in tracheal pressure after drug administration: 31%
  increase in heart rate after drug administration: 33%
[2]
  heart rate, dose-dependent response (percentage of baseline): increases
  mean arterial pressure, dose-dependent response (percentage of baseline): increases
  peak tracheal pressure, dose-dependent response (percentage of baseline): decrease
  effect on airway on addition to perfluorocarbon ventilation liquid: Airway dilation
